Data from patent publication US5338725A, “Anti-aggregatory agents for platelets” (The Research Foundation of the State University of New York, priority 1992, dated 1994).
Starred links: 1 amine or outer side, 2 acyl side, 3 side chain; linkers in the order of their positions; H or OH if unused. Positions of bridges follow the written chain, without caps; N, C: chain ends. Residues, ends and D or L forms follow the SMILES beside them. Chains are numbered I, II in the order given. Adipoyl = O=C(CCCCC(=O)[*:2])[*:1]

Biological target: human platelet-rich plasma (Homo sapiens, UniProt P05106+P08514)
Sequence (P08514 32-1039): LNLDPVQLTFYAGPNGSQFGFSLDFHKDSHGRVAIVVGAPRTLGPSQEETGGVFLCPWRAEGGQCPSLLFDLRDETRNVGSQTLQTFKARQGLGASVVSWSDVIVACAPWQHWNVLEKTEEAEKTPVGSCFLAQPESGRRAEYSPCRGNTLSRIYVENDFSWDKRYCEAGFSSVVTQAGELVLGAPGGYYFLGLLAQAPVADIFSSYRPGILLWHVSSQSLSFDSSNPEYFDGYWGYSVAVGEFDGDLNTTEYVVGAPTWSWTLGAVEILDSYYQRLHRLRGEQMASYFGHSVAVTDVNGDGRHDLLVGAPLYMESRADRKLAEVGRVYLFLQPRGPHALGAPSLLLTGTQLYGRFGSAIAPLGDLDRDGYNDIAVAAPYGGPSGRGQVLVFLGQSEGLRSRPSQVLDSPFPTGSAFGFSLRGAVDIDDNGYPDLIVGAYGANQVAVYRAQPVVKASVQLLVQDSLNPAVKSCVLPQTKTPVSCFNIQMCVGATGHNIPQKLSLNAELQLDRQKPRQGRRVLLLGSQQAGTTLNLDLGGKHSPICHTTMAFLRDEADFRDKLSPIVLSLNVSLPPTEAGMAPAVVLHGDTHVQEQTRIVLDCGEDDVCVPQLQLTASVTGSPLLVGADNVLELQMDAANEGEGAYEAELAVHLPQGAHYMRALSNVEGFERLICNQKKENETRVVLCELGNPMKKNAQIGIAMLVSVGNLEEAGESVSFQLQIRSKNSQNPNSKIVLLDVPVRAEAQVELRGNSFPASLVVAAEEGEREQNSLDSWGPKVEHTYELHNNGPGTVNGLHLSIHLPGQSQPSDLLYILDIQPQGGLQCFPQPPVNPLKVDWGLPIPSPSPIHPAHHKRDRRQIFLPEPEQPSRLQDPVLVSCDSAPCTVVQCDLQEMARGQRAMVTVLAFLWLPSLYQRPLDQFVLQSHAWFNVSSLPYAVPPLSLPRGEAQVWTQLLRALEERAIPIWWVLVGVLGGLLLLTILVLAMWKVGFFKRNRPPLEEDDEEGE
Sequence (P05106 27-788): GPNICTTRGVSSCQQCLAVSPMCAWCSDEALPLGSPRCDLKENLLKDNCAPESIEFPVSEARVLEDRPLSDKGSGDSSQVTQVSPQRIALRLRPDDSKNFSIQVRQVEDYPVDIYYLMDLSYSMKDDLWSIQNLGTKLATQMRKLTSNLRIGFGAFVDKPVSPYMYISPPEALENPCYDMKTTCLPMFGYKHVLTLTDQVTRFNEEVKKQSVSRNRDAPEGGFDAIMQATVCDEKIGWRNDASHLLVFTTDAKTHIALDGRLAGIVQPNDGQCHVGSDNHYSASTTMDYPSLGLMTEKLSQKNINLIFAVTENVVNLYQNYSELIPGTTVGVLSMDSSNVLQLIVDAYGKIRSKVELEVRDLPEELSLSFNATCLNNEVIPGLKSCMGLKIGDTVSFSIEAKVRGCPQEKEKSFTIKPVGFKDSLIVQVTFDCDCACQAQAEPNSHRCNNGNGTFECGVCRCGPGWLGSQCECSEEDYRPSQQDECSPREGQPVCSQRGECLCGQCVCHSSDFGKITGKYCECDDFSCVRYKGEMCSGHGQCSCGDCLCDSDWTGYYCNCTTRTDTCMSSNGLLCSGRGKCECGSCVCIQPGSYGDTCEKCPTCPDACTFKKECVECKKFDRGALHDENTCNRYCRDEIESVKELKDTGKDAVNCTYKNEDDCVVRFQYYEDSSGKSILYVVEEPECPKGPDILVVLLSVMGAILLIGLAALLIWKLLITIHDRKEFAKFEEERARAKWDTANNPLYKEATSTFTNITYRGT
Assay: In vitro inhibition of ADP-induced aggregation of human platelet-rich plasma (Coller assay)
Type: cell-based
Details: adjusted for fibrinogen concentration (ca. 30 times lower than Coller assay value; 0.1 mg/mL fibrinogen)
Method: 1. In vitro Inhibition of Aggregation of Human Platelet-Rich Plasma
Whole blood (10 ml) was collected from human volunteers and anticoagulated by addition of […] of 40% sodium citrate. Platelet-rich plasma (PRP) was prepared by low speed centrifugation (700 G for 3.5 min at 22° C.). The PRP was removed and the remaining blood was centrifuged at 2000 G for 10 min at 22 ° C. to obtain platelet poor plasma (PPP). The PRP was diluted with PPP to give a final platelet count of 300 000μL with a Coulter Acounter Model ZM (Coulter, Hialeah, Fla.). This diluted PRP (400μL) was placed in a siliconized glass cuvette equipped with a magnetic stirrer and stirred at 1200 rpm at 37° C. Various concentrations of the peptides (36μL) in TRIS buffer (0.01 M TRIS, 0.15 M NaCl, and 0.05% sodium azide, pH 7.4) was added and incubated for 3 rain before platelet aggregation was induced by addition of 54μL of 100μM ADP in HEPES buffer (0.01 M HEPES and 0.15 M NaCl, pH 7.5). The platelet aggregation was determined by a change in light transmission through the PRP on a Lumi Aggregometer 400rS (ChronoLog, Hayertown, PA). The ability of the peptides to inhibit platelet aggregation was evaluated and the IC50 was determined as the concentration of peptide required to produce 50% inhibition of the response to ADP in the presence of the TRIS buffer.
The assay system developed by Coller, which is used throughout the experiment, is different from conventional assay systems in certain aspects. First, the platelets used by Plow et al., Blood, 70, 110 (1987); and Garsky et al., Proc. Natl. Acad. Sci. U.S.A., 86, 4022 (1989) are gel-filtered to remove plasma proteins. Since the gel-filtration treatment may decrease the reactivity of the platelets, our assay avoids this step. The platelet count is adjusted by simply mixing PRP and PPP, which minimizes alterations of the platelets. Second, fibrinogen concentration in the Coller system is different from that of others. As shown in the experimental description of the assay, PRP was obtained from fresh blood and used immediately without further manipulation except for count adjustment. According to measurements obtained using this assay, such plasma contains ca. 3 mg of fibrinogen per 1 mL of plasma. On the other hand, fibrinogen concentration used in the Garsky and Plow assay system is 0.1 mg/mL. The concentration of fibrinogen affects the amount of RGD peptide required to inhibit platelet aggregation, with higher fibrinogen concentrations resulting in higher IC50 values. If there is a linear relationship between these two parameters, the IC50 values obtained from the Coller assay should be ca. 30 times larger than those obtained from the Plow et al. assay or the Garsky et al. assay. The adjusted IC50 values are presented in column 4 of Table showing the inhibitory activities of RGD peptides.
The following peptides were synthesized, and their amino acid contents were analyzed as described in procedures 3-7, above. In addition, their ability to inhibit aggregation of human platelet rich plasma was assessed as described in procedures 1 and 2, above. Their respective IC50 values, as well as their estimated IC50 adjusted to the values according the method of Plow et al., (vide supra) are listed in Table 1.

## N=C(N)NCCC[C@H](NC(=O)CCCCC(=O)N[C@@H](CCCNC(=N)N)C(=O)NCC(=O)N[C@@H](CC(=O)O)C(=O)N[C@@H](Cc1ccccc1)C(=O)O)C(=O)NCC(=O)N[C@@H](CC(=O)O)C(=O)N[C@@H](Cc1ccccc1)C(=O)O [Example 14, Bda(RGDF--OH)2] (I: RGDF-OH / II: RGDF-OH; linker I:N-II:N via Adipoyl)
  IC50 (M)* Estimated IC50 adjusted to the values by the method of Plow et al.: 4.7e-07 M

## N=C(N)NCCC[C@H](N)C(=O)NCC(=O)N[C@@H](CC(=O)O)C(=O)N[C@@H](Cc1ccccc1)C(=O)NCCCC[C@H](NC(=O)[C@H](Cc1ccccc1)NC(=O)[C@H](CC(=O)O)NC(=O)CNC(=O)[C@@H](N)CCCNC(=N)N)C(N)=O [Example 3, (RGDF)2 Lys--NH2]
  IC50 (M)* Estimated IC50 adjusted to the values by the method of Plow et al.: 1.2e-06 M
